Assay results from patent US10688119B2, “Inhibitors of PCSK9 for treatment of lipoprotein metabolism disorders” (Aarhus Universitet, priority 2015, dated 2020).
Entries after “also recorded” stand apart in the source; their conditions may differ.

B1: mAb 5E11: rat monoclonal antibody against the HSPG binding domain; VH SEQ ID NO: 7, VK SEQ ID NO: 5 (antibody, V domains shown)
VH: EVQLQESGPGLVKPSQSLSLTCSVTGYTITSGYDWSWIRRFPGNTMEWMGDISYSGSTNYNPSLKSRVSITRDTSKNQFFLQLNSVTTGDTATYYCAKLPGWGQGTLVTVSS
VL: DVVLTQTPVFLSVTLGDQTSISCRSSQSLEYSDGYTYLEWYLQKPGQSPQLLIYEVSNRFSGVPDRFIGSGSGTDFTLKISRVEPEDLGVYYCFQGTHDPLTFGSGTKLEIK

How the values were obtained:
PCSK9 = PCSK9 (Homo sapiens, UniProt Q8NBP7); test: Microscale Thermophoresis (MST) equilibrium binding to PCSK9; conditions: 100 nM labelled PCSK9, PBS+0.05% Tween-20; read-out: KD (affinity for PCSK9, MST)
Chain of PCSK9 (Q8NBP7 153-692): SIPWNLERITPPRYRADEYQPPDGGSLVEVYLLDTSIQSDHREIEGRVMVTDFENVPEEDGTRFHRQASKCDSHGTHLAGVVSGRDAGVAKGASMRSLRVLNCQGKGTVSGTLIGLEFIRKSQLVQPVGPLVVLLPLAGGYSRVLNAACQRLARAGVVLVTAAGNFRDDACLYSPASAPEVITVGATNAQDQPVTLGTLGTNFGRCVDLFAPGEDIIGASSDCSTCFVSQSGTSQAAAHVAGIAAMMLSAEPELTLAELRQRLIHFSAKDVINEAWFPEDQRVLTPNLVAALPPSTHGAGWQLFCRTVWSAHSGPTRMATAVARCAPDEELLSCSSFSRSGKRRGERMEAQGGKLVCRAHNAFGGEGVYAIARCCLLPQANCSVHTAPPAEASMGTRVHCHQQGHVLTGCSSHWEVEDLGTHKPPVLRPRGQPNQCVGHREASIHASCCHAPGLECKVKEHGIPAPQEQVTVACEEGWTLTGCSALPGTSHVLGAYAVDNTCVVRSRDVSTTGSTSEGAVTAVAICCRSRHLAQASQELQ
Method: PCSK9 was labeled using the MO-L003 Monolith Blue-NHS labeling kit (NanoTemper Technologies) and a labeling efficiency of 1:1 molar ratio of protein to dye was achieved. PCSK9 was applied at a final concentration of 100 nM. […] MST measurements were performed in standard-treated capillaries (NanoTemper Technologies) on a Monolith NT.115 instrument (NanoTemper Technologies) using 20% LED and 80% MST power. Laser on and off times were 5 s and 35 s, respectively. Negative controls were performed using 100 nM of labelled PCSK9 in MST buffer in all 16 capillaries under the same conditions as mentioned above. […] For each binding partner, the sigmoidal dose-response curves were fitted with GraphPad Prism 6 to yield an average KD value.

[1] = patients with elevated serum cholesterol, oral or subcutaneous Pentosan-polysulfate
Method: The patient receives subcutaneous injections of 25-500 mg of the composition at intervals of 1-28 days.
A patient with elevated LDL cholesterol is prescribed a statin treatment. […] The patient is then prescribed a treatment with subcutaneous injections of 25-500 mg of a composition comprising a humanized antibody directed against the HSPG binding site in human PCSK9. The injections take place at intervals of 1-28 days.
A patient with elevated LDL cholesterol levels is prescribed administration of a small molecule compound that is designed to block the HSPG binding site in human PCSK9. The compound is administered orally at a dosis of 0.1-30 mg/kg.
In addition to the statin, the patient is administered a compound inhibiting binding of HSPGs to PCSK9. The administration occurs weekly and with a low dose (25-150 mg) of the compound in combination with statins.
Cholesterol levels are then measured.

[2] = in vivo; cited from earlier work
LDLR in HepG2 cells = test: LDLR levels in HepG2 cells by Western blot/densitometry (PCSK9 induced LDLR degradation)
Method: Purified PCSK9 variants were tested in a cell assay to test their ability to induce degradation of LDLR compared to wild-type PCSK9. Induction of LDLR degradation was analyzed by incubation of HepG2 cells with wild type PCSK9 (WT) or the above PCSK9 mutants and LDLR levels were assessed by Western blotting. HepG2 cells were seeded at a density 250.000 cells per well in 12-well plates. […] Cells were harvested and lysed following 18 hours incubation and LDLR levels were assessed by Western blotting and quantification by densitometry.
The PCSK9 inhibitory effect of overnight incubation with suramin (0-200 μg/ml) was tested in HepG2 cells (FIG. 9 A-B).

[3] = biological target: T1, R93R96R97R104R105H139 PCSK9 mutant and variants (Homo sapiens, UniProt Q8NBP7, H139A/R104A/R105A/R93A/R96A/R97A); test: immunoprecipitation of 35S-mutant PCSK9 and PCSK9 variants; assay type: binding; conditions: 500 μl conditioned hybridoma media
T1 construct: expressed in transfected cells
Method: (§1) Western blot of GAPDH is shown as loading control. (B) Western Blot showing LDLR levels in liver of mice 1 hour afterintravenous administration of 10 μg PCSK9 alone or in combination with 50 U Heparin. 50 μg membrane preparations were loaded. As control is shown Western Blot for sortilin, a PCSK9 receptor previously shown not to be target of PCSK9 induced degradation. (C) Quantification of B) Bands were quantified by densitometry and dot plot show the individual level of each sample in percent of vehicle (0.9% NaCl) injected controls with mean values and SEM. […] (D) Autoradiography (16 h exposure) showing immunoprecipitation of native human ^35S labeled PCSK9 by serum (1 μl) from three rats immunized with DNA encoding rat PCSK9 with human HSPG binding domain. As negative controls were used preimmune serum from the animals. (E) Western Blot showing LDLR in HepG2 cells after overnight incubation with preimmune or immune IgG (1 μg/ml). […] (F) Autoradiography (16 h exposure) showing immunoprecipitation of human ^35S-PCSK9 by 24 individual mAbs (500 μl conditioned hybridoma media) selected in ELISA screening performed by Aldevron. […] (G) Bar graphs showing LDLR levels (average of 2-4 experiments with SEM) in HepG2 cells incubated with mAbs (1:10 dilution of conditioned hybridoma media) as analysed by Western Blot. Twelve individual mAb clones give an approximately two-fold increase LDLR. (H) Autoradiography (16 h exposure) showing immunoprecipitation of human ^35S-mutant PCSK9 (with R93R96R97R104R105H139 mutated to alanine residues) by 12 individual mAbs (500 μl conditioned hybridoma media) all showing PCSK9 inhibitory effect. As control was used a polyclonal antibody (pAb, AF3888 from R&D systems). […] As control was used R&D Systems AF3888 (pAb).
(§2) These 12 clones were tested to see whether they can bind an R93R96R97R104R105H139 PCSK9 mutant (FIG. 8H).

[4] = test system: R93R96R97R104R105H139 PCSK9 mutant and variants; test: as above; assay type: binding, human; conditions: WT, R96R97, R104R105, R93R96R97H139, R93R96R97R104R105H139
Method: as §1, §2

| Molecule | Kd (PCSK9) [µM] | serum cholesterol levels [1] | median time of absorption from the digestive tract after an oral dose [2] [h] | plateau of cellular LDLR compared to vehicle control (LDLR in HepG2 cells; dose-dependent, HepG2 cells) | binding of R93R96R97R104R105H139 PCSK9 mutant (immunoprecipitation) [3] | immunoprecipitation of 35S-PCSK9 WT and variants (epitope) [4] | increase of cellular LDLR (LDLR in HepG2 cells; mAbs, 1:10 dilution of conditioned hybridoma media) |
| --- | --- | --- | --- | --- | --- | --- | --- |
| pentosan [pentosan sulfate] | 381 | decreased serum cholesterol levels | 2 | around 400% | – | – | – |
| B1 | – | – | – | – | not able to bind this mutant | recognize only WT PCSK9; also recorded: recognize epitopes within the HSPG binding domain | approximately two fold |
